Measured values: PubChem BioAssay (NCI)
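In this assay, cells in 96-well plates receive the compound at five concentrations for 48 hours. Endpoints are linearly interpolated between the surrounding concentrations. GI50: concentration for 50% inhibition of growth. TGI is the concentration that stops growth completely.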

How the values were obtained:
Assay in all cases: NCI-60 cell line screen, 48 h
HT29 colon = system: HT29 colon
UACC-257 melanoma = system: UACC-257 melanoma
DLD-1 colon = system: DLD-1 colon
COLO 205 colon = system: COLO 205 colon
UO-31 renal = system: UO-31 renal
CAKI-1 renal = system: CAKI-1 renal
SNB-78 CNS = system: SNB-78 CNS
SW-620 colon = system: SW-620 colon
NCI/ADR-RES ovarian = system: NCI/ADR-RES ovarian
MDA-MB-435 = system: MDA-MB-435

Structure (SMILES)	TGI (HT29 colon) [µM]	TGI (UACC-257 melanoma) [µM]	TGI (DLD-1 colon) [µM]	TGI (COLO 205 colon) [µM]	TGI (UO-31 renal) [µM]	TGI (CAKI-1 renal) [µM]	TGI (SNB-78 CNS) [µM]	TGI (SW-620 colon) [µM]	GI50 (HT29 colon) [µM]	GI50 (UACC-257 melanoma) [µM]	GI50 (DLD-1 colon) [µM]	GI50 (COLO 205 colon) [µM]	GI50 (UO-31 renal) [µM]	GI50 (CAKI-1 renal) [µM]	GI50 (SNB-78 CNS) [µM]	GI50 (SW-620 colon) [µM]	GI50 (NCI/ADR-RES ovarian) [µM]	TGI (NCI/ADR-RES ovarian) [µM]	GI50 (MDA-MB-435) [µM]	TGI (MDA-MB-435) [µM]
CC1(C)CC2CC(CC(C)(C)C2=O)C1=O	> 100	> 100	> 100	> 100	> 100	> 100	> 100	> 100	–	–	–	–	–	–	–	–	–	–	–	–
NC(=O)NC12CC3CC(CC(F)(C3)C1)C2	> 100	> 100	> 100	> 100	> 100	–	> 100	> 100	–	–	–	–	–	–	–	–	–	–	–	–
CCOc1ccc(NC(=O)C(=O)C(C(=O)c2ccc3ccccc3c2)C2OC(=O)c3ccccc32)cc1 (stereo unspecified)	> 100	81.9	30.1	41.7	34	> 100	64.9	92.6	–	–	–	–	–	–	–	–	–	–	–	–
COc1cc2c(cc1OC)[C@@H](Nc1ccc(F)cc1)C1COC(=O)[C@@H]1C2c1cc(OC)c(O)c(OC)c1 (stereo partly specified)	> 58.3	> 79.6	40.5	33.3	15.4	3.76	97.5	> 38.5	–	–	–	–	–	–	–	–	–	–	–	–
CNC(=O)OCc1c2ccncc2c(C)c2c1[nH]c1ccc(OC)cc12	> 100	–	–	2.11	0.395	> 100	0.681	> 100	–	–	–	–	–	–	–	–	–	–	–	–
O=S(=O)(/C=C/CS(=O)(=O)c1ccccc1)c1ccccc1	> 100	87	> 100	> 100	> 100	–	89.9	45.7	–	–	–	–	–	–	–	–	–	–	–	–
CCCN(CCC)C(=O)C(=O)c1c(N)[nH]n(-c2ccccc2)c1=O	> 100	> 100	> 100	> 100	> 100	> 100	> 100	> 100	–	–	–	–	–	–	–	–	–	–	–	–
COc1cccc(NC(=O)CC(=O)N2N=C(N3c4ccccc4Sc4ccccc43)CC2c2ccccc2)c1 (stereo unspecified)	> 100	> 100	> 100	> 100	> 100	> 100	> 100	> 100	–	–	–	–	–	–	–	–	–	–	–	–
COC1=C(C)C(=O)c2c(cc3c(c2O)C(C)(CCC=C(C)C)C(C)O3)C1=O (stereo unspecified)	> 100	> 100	> 100	> 100	> 100	> 100	> 100	> 100	–	–	–	–	–	–	–	–	–	–	–	–
O=C(O)c1nc(-c2ccc(Cl)c(Cl)c2)nc2ccc(Cl)cc12	> 100	> 100	> 100	> 100	> 100	> 100	77.6	> 100	–	–	–	–	–	–	–	–	–	–	–	–
COc1ccc2nc3cc(Cl)ccc3c(SCC(=O)Nc3ccccc3-c3ccccc3NC(=O)CSc3c4ccc(Cl)cc4nc4ccc(OC)cc34)c2c1	> 100	> 100	> 100	> 100	> 100	> 100	> 100	> 100	–	–	–	–	–	–	–	–	–	–	–	–
COc1ccc(CC2(Cc3ccc(OC)cc3)CCOC2=O)cc1	> 100	> 100	> 100	> 100	> 100	> 100	–	> 100	–	–	–	–	–	–	–	–	–	–	–	–
C[CH2][Sn]([CH2]C)([O]C(=O)c1ccccc1F)[O][Sn]([CH2]C)([CH2]C)[O]C(=O)c1ccccc1F	> 72.7	35.4	54.7	> 57.9	> 100	27.7	46.7	36.5	39.8	18.4	18.4	25.6	> 72.4	14.2	18.7	20.3	–	–	–	–
C[C@]12CCC(=O)CC1CCCC2=O (stereo partly specified)	> 100	> 100	> 100	> 100	> 100	> 100	> 100	> 100	–	–	–	–	–	–	–	–	–	–	–	–
CCOC(=O)/C(O)=C(/C(=O)OC)c1ccc(Cl)cc1	> 100	> 100	> 100	> 100	> 100	> 100	> 100	> 100	–	–	–	–	–	–	–	–	–	–	–	–
COC(=O)C(CC1=C(O)Nc2ccccc2N1)/C(=N/NC(N)=O)C(=O)Nc1ccccc1C (stereo unspecified)	> 100	> 100	> 100	> 100	> 100	> 100	> 100	–	–	–	–	–	–	–	–	–	–	–	–	–
CCN(CC)c1oc(N(CC)CC)c(C(=O)Nc2ccccn2)c(=O)c1C(C)=O	> 100	–	> 100	> 100	> 100	> 100	> 100	> 100	–	–	–	–	–	–	–	–	–	–	–	–
COc1ccc(C2=C(c3ccc(OC)c(OC)c3)C(=O)N3CCCC3C2)cc1 (stereo unspecified)	> 100	> 100	–	> 100	> 100	> 100	–	> 100	13.6	62.3	–	8.41	22.8	39.4	–	32.5	39.6	> 100	25.7	> 100
CN(C)C(=O)c1ccc([N+](=O)[O-])cc1	> 100	> 100	> 100	> 100	> 100	> 100	> 100	> 100	–	–	–	–	–	–	–	–	–	–	–	–
O=C(O)C(CS)NCc1c2ccccc2nc2ccccc12 (stereo unspecified)	> 100	> 100	> 100	> 100	64.2	> 100	–	> 100	–	–	–	–	–	–	–	–	–	–	–	–
COc1cc(/C=C/C(=O)c2ccc(F)cc2)ccc1OCCCN1CCN(CC(=O)Nc2ccc(Cl)cc2C(=O)c2ccccc2Cl)CC1	10.4	47.9	–	23.8	20	32.5	–	10.7	2.05	9.51	–	4.47	2.45	11	–	2.73	13	> 100	8.19	22.5
CC(=O)O[C@H]1CCC2[C@@H]3CCC4c5nonc5CC[C@]4(C)C3CC[C@@]21C (stereo partly specified)	> 100	> 10	> 10	> 10	> 10	> 10	> 100	> 100	> 100	–	–	–	–	–	> 100	> 100	–	–	–	–
Cn1cccc1-c1cc(-c2ccc(Br)cc2)[nH]c(=O)c1C#N	> 100	> 100	–	> 100	> 100	> 100	–	> 100	> 100	> 100	–	> 100	69.1	> 100	–	> 100	> 100	> 100	> 100	> 100
